The text below walks through data of patent publication US11234914B2, “Monosubstituted urea derivatives as a self-tanning substance” (MERCK PATENT GMBH, priority 2016, dated 2022).

Test [1] concerns Normal Human Epidermal Keratinocytes (NHEK) and Normal Human Epidermal Melanocytes, lightly pigmented (NHEM-LP) co-culture. Kind of test: Synthesis of melanin in NHEK/NHEM-LP co-culture. The test is classed as cell-based. The following applies: 240 hours (10 days) incubation, NHEK:NHEM-LP 2:1, OD 405 nm. On the procedure: Evaluation of the Synthesis of Melanin in a Cell Culture Model Containing Two Cell Types (Co-Culture), Firstly Normal Human Epidermal KeratinoCytes (NHEK) and Secondly Normal Human Epidermal Melanocytes, Lightly Pigmented (NHEM-LP)
The two cell types NHEK and NHEM-LP (NHEK:NHEM-LP) are employed in a ratio of 2:1.
The culture medium consists of the media keratinocyte-SFM (2 parts by volume) and medium M254 (1 part by volume).
Keratinocyte-SFM contains 0.25 ng/ml of epidermal growth factor (EGF), 25 μg/ml of pituitary extract (PE) and 25 μg/ml of gentamycin and was purchased from Thermo Fisher Scientific.
M254 contains PMA-free HMGS-2, 5 μg/ml of insulin, 50 U/ml of penicillin, 50 μg/ml of streptomycin and 25 μg/ml of gentamycin and was purchased from Thermo Fisher Scientific.
NHEK and NHEM-LP were incubated in the culture medium in microtitre plates (24-well plates) for 24 hours (37° C., 5% CO2). The culture medium was removed and replaced by an assay medium which contained the culture medium and compounds Ia, Ib and Ic to be tested or alternatively no test substance, the reference L-tyrosine (1 mM), 200 μM of IBMX or the solvent control 0.1% of THF, 0.15% of THF. Compounds Ia, Ib and Ic are added as solution (0.15% in THF). After replacement of the assay medium, the cells were incubated again for 240 hours (10 days). On days 3 and 7, assay medium was again added. All experimental investigations were carried out using a triple determination. After the end of the incubation, the melanin was extracted by cell lysis with 0.5 N NaOH. The optical density (OD) of each sample was measured at 405 nm. The melanin quantity was calculated from melanin standards (standard curve 0.39 to 100 μg/ml of melanin).

The test system of test [2] is 3D melanized reconstructed human epidermis (RHEs-MEL). Description: Tanning properties in vitro on reconstructed epidermis. The conditions noted are these: compound at 25 μM and 12.5 M. The test is classed as cell-based. The procedure:
Evaluation of the Tanning Properties In Vitro on Reconstructed Epidermis
In this study, the tanning properties of compound Ic are investigated in vitro on 3D melanized reconstructed human epidermis (RHEs-MEL). The compound IBMX (3-isobutyl-1-methylxanthine) 100 μM is employed as positive control. Compound Ic is employed 25 μM and […]. Untreated reconstructed skin is used as negative control. The in vitro skin is treated systemically with the compounds to be investigated in a culture medium for 10 days and then analysed.

Consider `NC(=O)NCc1ccc2c(c1)OCO2` [Compound Ic, benzo[1,3]dioxol-5ylmethylurea], for which, in test [1] (tested at 20 μM), the “stimulation of melanin synthesis” value is 23%. The “stimulation of melanin synthesis” value in test [1] (tested at 30 μM) is listed as 44%. Moreover, in test [2] (10 days, both concentrations), the “ITA value (individual typology angle)” value is reported as “reduction” and the amount of melanin entry is “increased”. Further, the “tanning properties compared with positive control IBMX 100 μM” value in test [2] (systemic treatment in culture medium for 10 days, evident for both concentrations) is given as “comparably good properties as IBMX at 100 μM”.
As for `COc1ccc(CNC(N)=O)cc1` [Compound Ib, (4-methoxybenzyl)urea], the “stimulation of melanin synthesis” value in test [1] (tested at 45 μM) is on record as 18%.
On the same count and under the same terms, under `NC(=O)NCc1ccccc1` [Compound Ia, Benzylurea] stands 17%.
